Counter-ions that a name gives are not always drawn.
Assays:
Human STING = molecular target: T1, Human STING (Homo sapiens, UniProt Q86WV6, G230A/H232R/R293Q/R71H); test: Stimulation of human STING signaling in THP1 cell line (THP1-Blue ISG SEAP reporter); type: cell-based; conditions: THP1-Blue ISG cells, SEAP activity, 18-20 hours
T1 construct: using human THP1-Blue™ ISG SEAP based reporter cell line (Invivogen); host or cells: THP1-Blue ISG cells (human monocytic THP-1 derived SEAP reporter line)
Method: Biological Assay—Stimulation of Human STING Signaling in THP1 Cell Line
Compounds were tested for their STING activation potential using human THP1-Blue™ ISG SEAP based reporter cell line (Invivogen). Briefly, THP1-Blue ISG cells (100,000 cells/well) in 96 well plate were treated with varying concentrations of test and reference compounds and incubated at 37° C. with 5% CO2 for 18-20 hours. The control untreated cells were also set up. Post incubation, the cell supernatant was tested for SEAP (Secreted Embryonic Alkaline Phosphatase) activity using the QuantiBlue™ substrate reagent (Invivogen). The formation of blue coloured product was quantified by measuring absorbance at wavelength of 620 nm using PheraStar/Tecan reader. The average of duplicate readouts for each data point was plotted in GraphPad prism 6 against the concentration of test or reference compound to calculate EC50 value. The fold of SEAP induction or increase in luminescence at different data points was estimated against the un-stimulated cell control set.

CD3^+CD8^+ T cells = test: Estimation of immune cell infiltration in tumors (flow cytometry); type: in vivo, Balb/c mice
Method: Estimation of immune cell infiltration in tumors: CT-26 tumor-bearing Balb/c mice were treated intravenously with 0.375 mg/kg of test compounds and blood and tumors were processed for analysis of CD8^+, CD3^+ and CD45^+ T cells at 24 h and 96 h after start of treatment. Blood samples were subjected to RBC lysis and the cells were recovered by centrifugation. Following wash with PBS, the cells were blocked using TruStain FcX™ blocking antibody and stained with fluorophore-tagged anti-CD45, anti-CD3 and anti-CD8 antibodies. Tumor samples were minced and subjected to tissue digestion using freshly prepared collagenase-IV solution (1 mg/ml) containing DNase (0.05 mg/ml) for 1-1.5 h at 37° C. and 150-200 rpm. Single cell suspension was prepared by filtering it through a 100 μm mesh and checked for cell viability. Cells were stained with various antibodies as mentioned above. The distinct T cell subsets were analysed on FACS Canto II (BD) and percentage of each population was calculated after initial gating of CD45^+ lymphocyte population.

[1] = test system: Interferon beta (IFNβ), interleukin-6 (IL-6) and tumor necrosis factor alpha (TNFα); test: Serum and tumor cytokine levels in CT26 tumor-bearing mice (ELISA); type: in vivo, BALB/c mice; conditions: 0.375 mg/kg single i.v.
Method: Pharmacokinetic and Pharmacodynamic Profiling and Estimation of Immune Cell Infiltration in Tumors Following Treatment with Compounds 2, 6, 8, 12 and 14
Serum and tumor cytokine levels and corresponding compound concentrations in mouse plasma were determined following single-dose intravenous administration in CT26 (murine colorectal carcinoma) tumor-bearing mice. Briefly, naïve BALB/c mice in the age group of 6-8 weeks were inoculated with 0.1 million CT-26 cells/animal in phosphate buffered saline (PBS), subcutaneously. […] Blood and tumor samples were harvested at various time points up to 24 h post-dose. Tumor samples were homogenized and prepared for cytokine estimation (ELISA) and compound concentration were determined by LC-MS/MS. Serum aliquots and tumor samples were snap-frozen and stored at −80° C. till further analysis. Serum and tumor samples were evaluated for Interferon beta (IFNβ), interleukin-6 (IL-6) and tumor necrosis factor alpha (TNFα) by enzyme linked immunosorbent assay (ELISA) using kits from R & D systems (Quantikine mouse IL-6 and TNFα kits) and PBL biosciences (Verikine mouse IFNβ kit).
Cytokine analysis from mouse serum samples: For IL-6 and TNFα estimation, 50 μL of test samples or internal standard or control were applied to wells in duplicates and incubated for 2 h at room temperature, followed by aspiration and washing four times with 400 μL of wash buffer. 100 μL of mouse IL-6 or TNFα conjugate solution was added and incubated further for 2 h at room temperature and followed later by 4 wash cycles. 100 μL of substrate solution was added to each well with addition of stop solution after 30 min. Optical density was measured at 450 nm averaged and was used for further calculations following subtraction of respective blank controls. Cytokine concentrations were determined by interpolating the optical density of samples into the reference standard curve utilizing four parameter logistic (4-PL) curve-fit. Cytokine concentrations were normalized with their respective dilution factors and represented in pg/mL. For IFNβ estimation, 100 μL test sample or internal standard or controls were applied to the wells in duplicates and incubated for 1 h at room temperature followed by three washes and addition of the anti-mouse IFNβ antibody solution with further 1 h incubation. This was followed by addition of horseradish peroxidase (HRP) solution and three washes, later addition of TMB substrate and reading the optical density at 450 nm. Optical densities were blank-subtracted and interpolated to the reference standard utilizing the four parameter logistic (4-PL) curve-fit. Cytokine concentrations were normalized with their respective dilution factors and represented in pg/mL. Tables 4 and 5 indicate cytokine levels for compounds 2, 6, 8, 12, and 14 in serum and tumor at different administered doses.
Cytokine analysis from tumor samples: Tumor samples were homogenized in a bead-based homogenizer and lysates were prepared with buffer supplemented with 1% Triton X-100 and protease inhibitors. Cytokine levels were estimated by ELISA and expressed as pg/g tumor.

T1 sequence (Q86WV6 whole entry R71H/G230A/H232R/R293Q): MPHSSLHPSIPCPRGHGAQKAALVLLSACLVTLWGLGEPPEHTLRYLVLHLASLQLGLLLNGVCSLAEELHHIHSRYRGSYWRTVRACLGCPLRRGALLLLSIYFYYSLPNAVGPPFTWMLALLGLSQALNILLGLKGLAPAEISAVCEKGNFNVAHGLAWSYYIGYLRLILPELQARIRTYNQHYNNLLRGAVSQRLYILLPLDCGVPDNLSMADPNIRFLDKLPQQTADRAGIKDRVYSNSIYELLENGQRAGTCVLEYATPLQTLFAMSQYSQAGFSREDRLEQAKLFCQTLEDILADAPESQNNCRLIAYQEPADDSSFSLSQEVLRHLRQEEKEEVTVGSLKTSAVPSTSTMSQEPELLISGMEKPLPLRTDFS

## CCn1nc(C)cc1C(=O)Nc1nc2cc(C(N)=O)cc3c2n1C/C=C/Cn1c(NC(=O)c2cc(C)nn2CC)nc2cc(C(=O)NCCCn4cc(C(=O)O)cn4)cc(c21)OCCCO3 [Compound 8, (E)-1-(3-(12-carbamoyl-1,15-bis(1-ethyl-3-methyl-1H-pyrazole-5-carboxamido)-8,9,16,19-tetrahydro-7H-6,10-dioxa-2,14,15a,19a-tetraazacyclopentadeca[3,2,1-cd:8,9,10-c′d′]diindene-4-carboxamido)propyl)-1H-pyrazole-4-carboxylic acid sodium salt]
Human STING
  EC50: 1 to 10 nM
CD3^+CD8^+ T cells; infiltration in tumor, 96 h post treatment, 0.375 mg/kg single i.v.
  % CD3^+CD8^+ T cells: 15.5 ± 2.2%
CD3^+CD8^+ T cells; single i.v. dose of 0.375 mg/kg, 96 h post treatment initiation
  % CD3^+CD8^+ T cells infiltrating the tumor as compared to the vehicle-treated group: increase
[1]; 3.5 h (Table 6)
  Serum IFNβ: 20553 ± 3011.24 pg/mL
  Tumor IFNβ: 7975 ± 1164.2 pg/g tumor
[1]; 8 h (Table 6)
  Serum IFNβ: 307 ± 64.6 pg/mL
  Tumor IFNβ: 1182 ± 321.2 pg/g tumor
[1]; 12 h (Table 6)
  Serum IFNβ: 43 ± 33.5 pg/mL
  Tumor IFNβ: 284 ± 84.2 pg/g tumor
[1]; 24 h (Table 6)
  Serum IFNβ: BLQ
  Tumor IFNβ: 197 ± 84.7 pg/g tumor

## CCn1nc(C)cc1C(=O)Nc1nc2cc(C(N)=O)cc3c2n1C/C=C/Cn1c(NC(=O)c2cc(C)nn2CC)nc2cc(C(=O)N[C@H]4CC[C@H](C(=O)O)CC4)cc(c21)OC[C@@H](N1C2CCC1COC2)CO3 [Compound 14, (1S,4R)-4-((8S,E)-8-(3-oxa-8-azabicyclo[3.2.1]octan-8-yl)-12-carbamoyl-1,15-bis(1-ethyl-3-methyl-1H-pyrazole-5-carboxamido)-8,9,16,19-tetrahydro-7H-6,10-dioxa-2,14,15a,19a-tetraazacyclopentadeca[3,2,1-cd:8,9,10-c′d′]diindene-4-carboxamido)cyclohexane-1-carboxylic acid sodium salt]
Human STING
  EC50: 1 to 10 nM
[1]; 3.5 h (Table 6)
  Serum IFNβ: 768 ± 330.8 pg/mL
  Tumor IFNβ: 2433 ± 653.8 pg/g tumor
[1]; 8 h (Table 6)
  Serum IFNβ: 415 ± 8.7 pg/mL
  Tumor IFNβ: 2137 ± 261.8 pg/g tumor
[1]; 12 h (Table 6)
  Serum IFNβ: 5 ± 5 pg/mL
  Tumor IFNβ: 752 ± 126.6 pg/g tumor
[1]; 24 h (Table 6)
  Serum IFNβ: BLQ
  Tumor IFNβ: 380 ± 239 pg/g tumor
